The values that follow come from patent US6516294B1, “Nuclear receptor for 1α,25-dihydroxyvitamin D3 useful for selection of vitamin D3 ligands and a method therefor” (The Regents of the University of California, priority 1999, dated 2003).

One assay concerns the target T1, VDR (Homo sapiens, UniProt P11473).
T1 sequence (P11473 1-427): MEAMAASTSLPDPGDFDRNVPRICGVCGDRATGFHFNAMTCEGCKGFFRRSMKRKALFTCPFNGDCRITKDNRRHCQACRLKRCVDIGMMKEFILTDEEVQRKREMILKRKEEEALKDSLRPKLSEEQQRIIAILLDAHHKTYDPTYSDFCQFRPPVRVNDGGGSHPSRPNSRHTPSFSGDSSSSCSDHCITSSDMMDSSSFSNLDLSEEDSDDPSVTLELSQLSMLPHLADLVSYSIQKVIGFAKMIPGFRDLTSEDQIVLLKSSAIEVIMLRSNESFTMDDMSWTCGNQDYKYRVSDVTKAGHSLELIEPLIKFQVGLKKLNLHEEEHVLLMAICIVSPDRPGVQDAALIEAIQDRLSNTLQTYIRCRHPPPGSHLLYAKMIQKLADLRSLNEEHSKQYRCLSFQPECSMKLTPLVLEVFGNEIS
As to the kind of experiment: Binding to the VDR relative to 1α,25(OH)2D3. Particulars: 1α,25(OH)2D3 as reference. An excerpt: (§1) One striking ligand-receptor structure-function relationship for 1α,25(OH)2D3 analogs relates to the chiral center at carbon 20 (see FIG. 7A) of the steroid side chain. The 20-epi analogs are 100-10,000 times more transcriptionally potent than the natural hormone 1α,25(OH)2D3, even though their affinity for the VDR is not greater. It is also known that the side chain of 20-normal versus 20-epi analogs of 1α,25(OH)2D3 is able to access different regions of three-dimensional space around the C/D ring. […] Med. Chem. Lett., 3:1799 (1998).
(§2) The problem of docking in the VDR LBD a unique analog of 1α,25(OH)2D3 that has a second side chain attached to carbon 20, such as Gemini [21-(3′-hydroxy-3-methylbutyl)-1α,25(OH)2D3], was also evaluated. Thus, Gemini has both a 20-normal and a 20-epi side chain. […] This conclusion is also consistent both with the proposal that the ligand enters the VDR LBD leading with its A-ring and with the unique trypsin sensitivity of a VDR LBD-Gemini complex.

Another assay relates to osteocalcin promoter. The assay can be described thus: Transactivation of the osteocalcin promoter. The class given is cell-based. Particulars: more potent than 1α,25(OH)2D3.
Description: as §1
The seemingly benign structural change of the ligand from a 20-normal to 20-epi 1α,25(OH)2D3 results in a new conformational change in the VDR as assessed by trypsin sensitivity. This conformational change is believed to reflect an altered orientation of helix 12. Thus a VDR with a 20-epi ligand has an enhanced dimerization with RXR, resulting in increased transactivation of the osteocalcin promoter.
as §2

As for `C=C1/C(=C\C=C2/CCC[C@]3(C)[C@@H](C(CCCC(C)(C)O)CCCC(C)(C)O)CC[C@@H]23)C[C@H](O)C[C@H]1O` [Gemini, 21-(3′-hydroxy-3-methylbutyl)-1α,25(OH)2D3], on VDR, the “binding to the VDR relative to 1α,25(OH)2D3” value is on record as 40%. Besides, the “potency relative to 1α,25(OH)2D3, transactivation of the osteocalcin promoter” value in the assay on osteocalcin promoter is 13 -fold.
